# Laboratory results published in ChEMBL document CHEMBL1138864, “Synthesis of novel caspase inhibitors for characterization of the active caspase proteome in vitro and in vivo” (J Med Chem, 2006).
# Calls of active or inactive are those of the source. The calls are words filed in the database; no cut-off is given here.
# Key:
# Jurkat [1] = test: Inhibition of etoposide-induced apoptosis in human Jurkat T cells at 1 uM; assay type: functional, cell-based
# Jurkat [2] = test: Inhibition of etoposide-induced apoptosis in human Jurkat T cells at 10 uM; assay type: functional, cell-based
smiles,measurement,setting,value
Cc1cccc(C)c1C(=O)OCC(=O)[C@H](CC(=O)O)NC(=O)[C@H](CCCCNc1ccc([N+](=O)[O-])cc1[N+](=O)[O-])NC(=O)[C@H](CCC(=O)O)NC(=O)OCc1ccccc1,Activity,Jurkat [1],Active
same,Activity,Jurkat [2],Active
